Test results from patent US9012428B2, “Uracyl spirooxetane nucleoside phosphoramidates” (Janssen Products, LP, priority 2010, dated 2015).

How the values were obtained:
HIV = conditions: literature report; cited from earlier work
HCV type 1b replicon = assay: HCV replicon assay (Huh-Luc, luciferase readout); type: cell-based; conditions: Hepatitis C virus, 72 h; Huh-Luc replicon cells, three days incubation, luciferase activity
Procedure: (§1) The in vitro antiviral activity against HCV of the compound of formula I was tested in a cellular HCV replicon system based on Lohmann et al. (1999) Science 285:110-113, with the further modifications described by Krieger et al. (2001) Journal of Virology 75: 4614-4624 (incorporated herein by reference), which is further exemplified in the examples section. This model, while not a complete infection model for HCV, is widely accepted as the most robust and efficient model of autonomous HCV RNA replication currently available. It will be appreciated that it is important to distinguish between compounds that specifically interfere with HCV functions from those that exert cytotoxic or cytostatic effects in the HCV replicon model, and as a consequence cause a decrease in HCV RNA or linked reporter enzyme concentration. […]
The replicon cells were plated in 384-well plates in the presence of the test and control compounds which were added in various concentrations. Following an incubation of three days, HCV replication was measured by assaying luciferase activity (using standard luciferase assay substrates and reagents and a Perkin Elmer ViewLux™ ultraHTS microplate imager). […] The inhibitory activity of the compound on luciferase activity was monitored on the Huh-Luc cells, enabling a dose-response curve for the test compound. […]

[1] = Cytotoxicity in Huh-7 cells; type: cell-based; conditions: human
Procedure: as §1, with “concentration. Assays are known in the field for the evaluation of cellular cytotoxicity based for example on the activity of mitochondrial enzymes using fluorogenic redox dyes such as resazurin. Furthermore, cellular counter screens exist for the evaluation of non-selective inhibition of linked reporter gene activity, such as firefly luciferase.” for “concentration.”

Row | SMILES | activity against HIV (HIV) | EC50 (HCV type 1b replicon) [µM] | CC50 [1] [µM]
1 | Cc1cn([C@@H]2O[C@H](CO)[C@@H](O)[C@]23CCO3)c(=O)[nH]c1=O [1-(2-O,2-C-ethano-β-D-ribofuranosyl)thymine] | no activity was found |  | 
2 | O=c1ccn([C@@H]2O[C@H](CO)[C@@H](O)[C@]23CCO3)c(=O)[nH]1 [1-(2-O,2-C-ethano-β-D-ribofuranosyl)uracil] | no activity was found |  | 
3 | CCCCOC(=O)[C@H](C)N[P@](=O)(OC[C@H]1O[C@@H](n2ccc(=O)[nH]c2=O)[C@@]2(CCO2)[C@@H]1O)Oc1ccccc1 [Compound P1, butyl N—[(S)-{[(4R,5R,7R,8R)-5-(2,4-dioxo-3,4-dihydro-pyrimidin-1(2H)-yl)-8-hydroxy-1,6-dioxaspiro[3.4]oct-7-yl]methoxy}(phenoxy)-phosphoryl]-L-alaninate] |  | 2.51 | > 98
